Data from the Kinase Knowledgebase extract (Sharma et al. 2016).

Biological target: MAPK14 (UniProt Q16539)
Assay: SAPK2-alpha Kinase Inhibition

Sequence of MAPK14 (Q16539 whole entry, looked up): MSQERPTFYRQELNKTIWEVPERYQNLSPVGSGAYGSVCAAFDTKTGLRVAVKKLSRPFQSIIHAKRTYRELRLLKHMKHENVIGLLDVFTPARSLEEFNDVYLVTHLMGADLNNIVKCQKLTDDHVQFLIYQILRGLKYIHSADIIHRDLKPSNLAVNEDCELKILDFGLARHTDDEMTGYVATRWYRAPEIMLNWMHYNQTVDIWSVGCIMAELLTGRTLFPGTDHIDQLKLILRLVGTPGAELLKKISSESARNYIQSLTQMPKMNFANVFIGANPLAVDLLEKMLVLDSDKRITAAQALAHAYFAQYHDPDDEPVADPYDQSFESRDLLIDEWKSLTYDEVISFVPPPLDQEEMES

Row | IC50 [µM] | SMILES
1 | > 20 | Cc1nc(C)c(-c2ccnc(Nc3cccc([N+](=O)[O-])c3)n2)s1
2 | > 20 | Cc1nc(C)c(-c2ccnc(Nc3ccc(Cl)cc3)n2)s1
3 | > 20 | Cc1nc(C)c(-c2ccnc(Nc3ccc(F)cc3)n2)s1

Biological target: CDK2 (UniProt P24941)
Assay: Enzyme Assay

Row | SMILES | IC50 [µM]
4 | Cc1nc(C)c(-c2ccnc(Nc3ccc([N+](C)(C)C)cc3)n2)s1 | 1.5
5 | CNc1nc(C)c(-c2ccnc(Nc3cccc(Cl)c3)n2)s1 | 3
6 | Cc1nc(C)c(-c2ccnc(Nc3cccc(NC(=N)N)c3)n2)s1 | 1.4
7 | CNc1nc(C)c(-c2ccnc(Nc3cccc(F)c3)n2)s1 | 0.6
8 | CNc1nc(C)c(-c2ccnc(Nc3ccc(OC)cc3)n2)s1 | 0.8
9 | CNc1nc(C)c(-c2ccnc(Nc3cc(F)cc(F)c3)n2)s1 | 2
10 | CNc1nc(C)c(-c2ccnc(Nc3ccc(Cl)c(C(F)(F)F)c3)n2)s1 | 10

Continued, values first:

Row | IC50 [µM] | SMILES
11 | 0.6 | COc1ccc(Nc2nccc(-c3sc(C)nc3C)n2)c(O)c1
12 | 0.7 | Cc1nc(C)c(-c2ccnc(Nc3ccc(Cc4ccncc4)cc3)n2)s1
13 | 1.2 | CNc1nc(C)c(-c2ccnc(Nc3ccc(F)c(F)c3)n2)s1
14 | 1.1 | COC(=O)c1cc(Nc2nccc(-c3sc(C)nc3C)n2)ccc1Cl
15 | 0.6 | COCCOC(=O)c1cc(Nc2nccc(-c3sc(C)nc3C)n2)ccc1F

Biological target: CDK2 (UniProt P24941)
Assay: not given

Row | IC50 [µM] | SMILES
16 | 9 | Cc1nc(C)c(-c2ccnc(Nc3ccc(Cl)cc3)n2)s1
